Source: PMC6201272 (Journal of natural products, 2016)

Columns and labels:
[1] = test system: E. coli ATCC 25922; experiment: MIC determination; format: cell-based, Escherichia coli; conditions: for Minimum inhibitory concentration, E. coli ATCC 25922: MIC, duplicate, at least two independent experiments
[2] = test system: bacteria (broad-spectrum); conditions: cited from earlier work
[3] = test system: E.faecium ATCC 51299; experiment: MIC determination; format: cell-based, Enterococcus faecium; conditions: duplicate, at least two independent experiments
[4] = test system: S. aureus ATCC 29213; experiment: MIC determination; format: cell-based, Staphylococcus aureus; conditions: duplicate, at least two independent experiments
[5] = test system: C. albicans ATCC 28517; experiment: MIC determination, C. albicans ATCC 28517; format: cell-based
[6] = test system: monkey kidney cell line (BSC-1); experiment: Cytotoxicity against monkey kidney cell line BSC-1; format: cell-based
[7] = test system: P. aeruginosa ATCC 27853; experiment: MIC determination, P. aeruginosa ATCC 27853; format: cell-based
[8] = test system: E.faecium ATCC 29212; experiment: MIC determination; format: cell-based, Enterococcus faecium; conditions: duplicate, at least two independent experiments
[9] = test system: S. aureus ATCC 43300; experiment: MIC determination; format: cell-based, Staphylococcus aureus; conditions: duplicate, at least two independent experiments
[10] = test system: human colorectal tumor cell line (HCT-116); experiment: Cytotoxicity against human colorectal tumor cell line HCT-116; format: cell-based; conditions: maximum tested concentration 50 μg/mL
[11] = test system: bacterial strains and cell lines of Table 3; experiment: Cytotoxity and antibacterial activity, all assays; format: cell-based

Compound | Inhibition of growth of E. coli (in words) ([1]; authors' antimicrobial assays) | Antibacterial activity previously reported (in words) [2] | Minimum inhibitory concentration, E.faecium ATCC 51299 [3] | Minimum inhibitory concentration, S. aureus ATCC 29213 [4] | Minimum inhibitory concentration, E. coli ATCC 25922 [1] | Minimum inhibitory concentration, C. albicans ATCC 28517 [5] | Cytotoxicity Bsc-1 (IC50) [6] | Minimum inhibitory concentration, P. aeruginosa ATCC 27853 [7] | Minimum inhibitory concentration, E.faecium ATCC 29212 [8] | Minimum inhibitory concentration, S. aureus ATCC 43300 [9] | Toxicity against HCT-116 (in words) [10] | Cytotoxity and antibacterial activity in all assays (in words) [11]
Oc1c(Br)cc(Br)cc1Oc1ccc(Br)cc1Br [Compound 10] | did not inhibit the growth | broad-spectrum antibacterial activity | – | – | – | – | – | – | – | – | – | –
1-(4′,5′,6′-Tribromo-1′-methoxyphenoxy)-3,5-dibromo-2-methoxybenzene [Compound 5a] | – | – | >50 µg/mL | >50 µg/mL | >50 µg/mL | >50 µg/mL | >50 µg/mL | >50 µg/mL | >50 µg/mL | >50 µg/mL | – | –
1-(3′,4′,6′-Tribromo-1′-methoxyphenoxy)-3,5-dibromo-2-methoxybenzene [Compound 3a] | – | – | >50 µg/mL | >50 µg/mL | >50 µg/mL | >50 µg/mL | >50 µg/mL | >50 µg/mL | 50 µg/mL | >50 µg/mL | – | –
COc1c(Br)cc(Br)cc1Oc1c(Br)c(OC)c(Br)c(Br)c1OC [Compound 8a, 1-(3′,5′,6′-Tribromo-1′,4′-dimethoxy-1′-phenoxy)-3,5-dibromo-2-methoxybenzene] | – | – | – | – | – | – | – | – | – | – | nontoxic | inactive in all assays
